Test results: ChEMBL document CHEMBL1201862, “PubChem BioAssay data set” (2004)
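How tested: cells in 96-well plates exposed to compound for 48 hours at five concentrations. At the GI50, growth is halved.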 Calls of active or inactive are those of the source. Cut-off read from the data, not from the text of the source: active = GI50 up to about 1.1 µM and inactive = higher.

What was measured:
Test in all cases: inhibition of tumour cell growth, NCI panel, 48 h
MDA-MB-231 = system: MDA-MB-231
SNB-75 = system: SNB-75
OVCAR-5 = system: OVCAR-5
K562 = system: K562
RXF 393 = system: RXF 393
LOX IMVI = system: LOX IMVI
A549 = system: A549
MDA-MB-435 = system: MDA-MB-435
NCI-H23 = system: NCI-H23
OVCAR-8 = system: OVCAR-8
HT-29 = system: HT-29
HL-60 = system: HL-60
SK-MEL-28 = system: SK-MEL-28
NCI-H226 = system: NCI-H226
UACC-257 = system: UACC-257
CCRF-CEM = system: CCRF-CEM
DU-145 = system: DU-145
SF-539 = system: SF-539
OVCAR-3 = system: OVCAR-3
SF-295 = system: SF-295

| Structure (SMILES) | GI50 (MDA-MB-231) | GI50 (SNB-75) | GI50 (OVCAR-5) | GI50 (K562) | GI50 (RXF 393) | GI50 (LOX IMVI) | GI50 (A549) | GI50 (MDA-MB-435) | GI50 (NCI-H23) | GI50 (OVCAR-8) | GI50 (HT-29) | GI50 (HL-60) | GI50 (SK-MEL-28) | GI50 (NCI-H226) | GI50 (UACC-257) | GI50 (CCRF-CEM) | GI50 (DU-145) | GI50 (SF-539) | GI50 (OVCAR-3) | GI50 (SF-295) |
| --- | --- | --- | --- | --- | --- | --- | --- | --- | --- | --- | --- | --- | --- | --- | --- | --- | --- | --- | --- | --- |
| C/C(=N\N=C(N)N)c1c(C(=O)OCCCCCCOC(=O)c2nc3sccn3c2/C(C)=N/N=C(N)N)nc2sccn12 | > 100 µM (inactive) | 44.7 µM (inactive) | > 100 µM (inactive) | 19.5 µM (inactive) | > 100 µM (inactive) | 98.2 µM (inactive) | > 100 µM (inactive) | > 100 µM (inactive) | 46.1 µM (inactive) | 42.9 µM (inactive) | > 100 µM (inactive) | 32.1 µM (inactive) | > 100 µM (inactive) | > 100 µM (inactive) | > 100 µM (inactive) | 20.5 µM (inactive) | – | – | – | – |
| CCCCOc1ccc(S(=O)(=O)/N=C(\NN)Nc2ccc(Cl)cc2)cc1 | 20.2 µM (inactive) | 12.2 µM (inactive) | 21 µM (inactive) | 31.7 µM (inactive) | 16.7 µM (inactive) | 19.8 µM (inactive) | 17.8 µM (inactive) | – | 36.1 µM (inactive) | 19 µM (inactive) | 22.3 µM (inactive) | 31 µM (inactive) | 43.7 µM (inactive) | 29.6 µM (inactive) | 23.1 µM (inactive) | 20 µM (inactive) | 17.2 µM (inactive) | 17.7 µM (inactive) | 20.8 µM (inactive) | 23.4 µM (inactive) |
| CC(C)(C)OC(=O)C1/C(=C/CO)CN1C(=O)OC(C)(C)C (stereo unspecified) | – | – | > 100 µM (inactive) | > 100 µM (inactive) | – | > 100 µM (inactive) | > 100 µM (inactive) | > 100 µM (inactive) | > 100 µM (inactive) | > 100 µM (inactive) | > 100 µM (inactive) | > 100 µM (inactive) | > 100 µM (inactive) | – | > 100 µM (inactive) | 76.2 µM (inactive) | – | > 100 µM (inactive) | > 100 µM (inactive) | > 100 µM (inactive) |
| COc1cc(/C=N/n2c(Cc3ccc(Cl)cc3)n[nH]c2=O)cc(OC)c1OC | > 100 µM (inactive) | 65.2 µM (inactive) | > 100 µM (inactive) | > 100 µM (inactive) | > 100 µM (inactive) | – | > 100 µM (inactive) | > 100 µM (inactive) | > 100 µM (inactive) | 26.5 µM (inactive) | > 100 µM (inactive) | – | > 100 µM (inactive) | > 100 µM (inactive) | 37.5 µM (inactive) | > 100 µM (inactive) | – | 44.8 µM (inactive) | 85.9 µM (inactive) | > 100 µM (inactive) |
| O=C1C(Cl)=C(Cl)C(=O)C(CCNc2nccs2)=C1Cl | – | 23.3 µM (inactive) | 44.3 µM (inactive) | 22.3 µM (inactive) | 22.4 µM (inactive) | – | > 100 µM (inactive) | 21.4 µM (inactive) | 31.2 µM (inactive) | 29.5 µM (inactive) | 35.2 µM (inactive) | 43.7 µM (inactive) | 39 µM (inactive) | – | 21.1 µM (inactive) | 0.335 µM (active) | 58.7 µM (inactive) | 33.7 µM (inactive) | 25.8 µM (inactive) | > 100 µM (inactive) |
| NN/C(=N\S(=O)(=O)c1cc2ccccc2o1)Nc1ccc(Cl)cc1 | 67.9 µM (inactive) | 13.1 µM (inactive) | > 100 µM (inactive) | > 100 µM (inactive) | 20.7 µM (inactive) | > 100 µM (inactive) | > 100 µM (inactive) | – | > 100 µM (inactive) | 51.1 µM (inactive) | > 100 µM (inactive) | > 100 µM (inactive) | > 100 µM (inactive) | > 100 µM (inactive) | > 100 µM (inactive) | 2.02 µM (inactive) | > 100 µM (inactive) | > 100 µM (inactive) | 36.6 µM (inactive) | 63.5 µM (inactive) |
| O=C(COc1cc(=O)oc2ccccc12)c1ccccc1 | 83.8 µM (inactive) | 26.4 µM (inactive) | > 100 µM (inactive) | > 100 µM (inactive) | > 10 µM (inactive) | 41.1 µM (inactive) | 97.3 µM (inactive) | – | 25.2 µM (inactive) | 33 µM (inactive) | 22.6 µM (inactive) | > 100 µM (inactive) | 32.3 µM (inactive) | 19.1 µM (inactive) | > 100 µM (inactive) | 71.6 µM (inactive) | > 100 µM (inactive) | 21.5 µM (inactive) | 19.4 µM (inactive) | 29.1 µM (inactive) |
| COc1ccc(/C=C/C(=O)c2ccc(Br)cc2)cc1 | > 100 µM (inactive) | 93.5 µM (inactive) | 18.4 µM (inactive) | > 100 µM (inactive) | – | – | > 100 µM (inactive) | > 100 µM (inactive) | 30.6 µM (inactive) | > 100 µM (inactive) | > 100 µM (inactive) | 66.8 µM (inactive) | > 100 µM (inactive) | > 100 µM (inactive) | > 10 µM (inactive) | > 100 µM (inactive) | > 100 µM (inactive) | > 100 µM (inactive) | – | > 100 µM (inactive) |
| c1cc2c3c(c1)c1cc4c(cc1c[n+]3CC2)OCO4 [ANHYDROLYCORINIUM CHLORIDE] | – | 2.44 µM (inactive) | 2.85 µM (inactive) | 4.47 µM (inactive) | 6.12 µM (inactive) | 25.5 µM (inactive) | 1.15 µM (inactive) | – | 3.59 µM (inactive) | 1.33 µM (inactive) | 7.4 µM (inactive) | 6.3 µM (inactive) | 4.82 µM (inactive) | 1.25 µM (inactive) | 5.28 µM (inactive) | 3.35 µM (inactive) | – | 2.48 µM (inactive) | 3.4 µM (inactive) | 0.802 µM (active) |
| O=C1[C@H]2ON(c3ccccc3)C(c3ccc([N+](=O)[O-])cc3)[C@H]2C(=O)N1c1ccc(Cc2ccc(N3C(=O)[C@@H]4ON(c5ccccc5)C(c5ccc([N+](=O)[O-])cc5)[C@@H]4C3=O)cc2)cc1 (stereo partly specified) | – | > 100 µM (inactive) | > 100 µM (inactive) | > 100 µM (inactive) | > 100 µM (inactive) | > 100 µM (inactive) | > 100 µM (inactive) | – | > 100 µM (inactive) | > 100 µM (inactive) | > 100 µM (inactive) | > 100 µM (inactive) | > 100 µM (inactive) | > 100 µM (inactive) | 98.9 µM (inactive) | > 100 µM (inactive) | – | > 100 µM (inactive) | > 100 µM (inactive) | > 100 µM (inactive) |
| Cc1ccc2c(sc(-c3ccc4c(c3)sc(-c3ccc(N(C)C)cc3)[n+]4C)[n+]2C)c1S(=O)(=O)O.Cc1ccc2c(sc(-c3ccc4c(c3)sc(-c3ccc5c(c3)sc(-c3ccc(N(C)C)cc3)[n+]5C)[n+]4C)[n+]2C)c1S(=O)(=O)O | 22 µM (inactive) | > 100 µM (inactive) | > 100 µM (inactive) | 35.5 µM (inactive) | – | > 100 µM (inactive) | > 100 µM (inactive) | > 100 µM (inactive) | > 100 µM (inactive) | > 100 µM (inactive) | > 100 µM (inactive) | 52.8 µM (inactive) | > 100 µM (inactive) | – | > 100 µM (inactive) | 10 µM (inactive) | > 100 µM (inactive) | > 100 µM (inactive) | > 100 µM (inactive) | > 100 µM (inactive) |
| C(=N\c1cc2cc(Sc3ccccc3)ccc2[nH]1)/c1ccccc1 | – | > 12.5 µM (inactive) | – | 11 µM (inactive) | > 12.5 µM (inactive) | 5.85 µM (inactive) | 0.0818 µM (active) | 4.28 µM (inactive) | > 12.5 µM (inactive) | > 12.5 µM (inactive) | > 12.5 µM (inactive) | > 12.5 µM (inactive) | > 12.5 µM (inactive) | – | > 12.5 µM (inactive) | > 12.5 µM (inactive) | > 12.5 µM (inactive) | 0.741 µM (active) | > 12.5 µM (inactive) | 11 µM (inactive) |
| C=CCOc1ccc(C(/N=N\c2ccc(Cl)cc2)=N/NC(=O)c2ccccc2)cc1OC | > 100 µM (inactive) | 60.3 µM (inactive) | > 100 µM (inactive) | – | – | 48 µM (inactive) | > 100 µM (inactive) | 34.7 µM (inactive) | 60 µM (inactive) | 37.5 µM (inactive) | 52.7 µM (inactive) | 33.8 µM (inactive) | 19 µM (inactive) | 53.7 µM (inactive) | 41.8 µM (inactive) | 29.5 µM (inactive) | > 100 µM (inactive) | – | 62.7 µM (inactive) | > 100 µM (inactive) |
| CC(O)=C1C(=O)CCC1=O | – | > 100 µM (inactive) | > 100 µM (inactive) | > 100 µM (inactive) | > 100 µM (inactive) | > 100 µM (inactive) | > 100 µM (inactive) | > 100 µM (inactive) | > 100 µM (inactive) | > 100 µM (inactive) | > 100 µM (inactive) | > 100 µM (inactive) | > 100 µM (inactive) | > 100 µM (inactive) | > 100 µM (inactive) | > 100 µM (inactive) | > 100 µM (inactive) | > 100 µM (inactive) | > 100 µM (inactive) | > 100 µM (inactive) |
| CC1(O)CC23CC(O)C4(O)C(CC(O)C4(C)C)C(C)(O)C2CCC1C3O (stereo unspecified) | > 100 µM (inactive) | – | > 100 µM (inactive) | > 100 µM (inactive) | – | > 100 µM (inactive) | > 100 µM (inactive) | > 100 µM (inactive) | > 100 µM (inactive) | > 100 µM (inactive) | > 100 µM (inactive) | > 100 µM (inactive) | > 100 µM (inactive) | > 100 µM (inactive) | > 100 µM (inactive) | > 100 µM (inactive) | > 100 µM (inactive) | > 100 µM (inactive) | – | > 100 µM (inactive) |
